Patent US10160762B2, “6-alkyl dihydropyrazolopyrimidinone compounds as PDE2 inhibitors” (Merck Sharp & Dohme Corp., priority 2015, dated 2018)
Like-named read-outs stand apart in the source and are kept apart here.

Target: T1, Rhesus PDE2A3 (Macaca mulatta, UniProt B3VTJ2)
T1 construct: made in house; host or cells: AD293 cells, transient transfection; supernatant of sonicated lysate
T1 sequence (B3VTJ2 1-941): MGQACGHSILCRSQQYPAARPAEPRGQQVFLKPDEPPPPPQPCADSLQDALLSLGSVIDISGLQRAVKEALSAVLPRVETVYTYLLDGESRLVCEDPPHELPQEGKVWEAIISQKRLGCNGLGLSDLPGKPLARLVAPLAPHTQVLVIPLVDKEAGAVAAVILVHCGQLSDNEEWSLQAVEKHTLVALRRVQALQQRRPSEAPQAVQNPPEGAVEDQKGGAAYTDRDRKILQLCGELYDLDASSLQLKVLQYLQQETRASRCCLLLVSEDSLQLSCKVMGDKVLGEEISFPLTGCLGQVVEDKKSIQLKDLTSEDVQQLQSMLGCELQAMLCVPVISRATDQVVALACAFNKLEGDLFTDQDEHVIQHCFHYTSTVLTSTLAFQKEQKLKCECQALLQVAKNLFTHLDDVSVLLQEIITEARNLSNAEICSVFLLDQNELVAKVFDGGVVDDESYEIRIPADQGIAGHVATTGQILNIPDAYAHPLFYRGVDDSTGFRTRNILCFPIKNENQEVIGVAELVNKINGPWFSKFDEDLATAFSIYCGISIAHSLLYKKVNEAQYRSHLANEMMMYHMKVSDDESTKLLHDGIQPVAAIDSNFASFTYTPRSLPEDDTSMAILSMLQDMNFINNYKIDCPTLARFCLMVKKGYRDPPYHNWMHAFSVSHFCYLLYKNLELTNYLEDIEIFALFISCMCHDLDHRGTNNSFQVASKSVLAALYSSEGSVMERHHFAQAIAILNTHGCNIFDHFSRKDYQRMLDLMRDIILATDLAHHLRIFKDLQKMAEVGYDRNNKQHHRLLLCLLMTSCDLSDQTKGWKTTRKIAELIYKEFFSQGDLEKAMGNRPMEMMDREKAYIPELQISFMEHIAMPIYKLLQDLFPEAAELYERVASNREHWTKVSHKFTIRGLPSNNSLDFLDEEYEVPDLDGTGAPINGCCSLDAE
Test: PDE2 fluorescence polarization (IMAP FP) inhibition assay, rhesus PDE2A3
Format: biochemical, rhesus macaque
Outline: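 Enzyme source was the lysate supernatant of AD293 cells transiently expressing rhesus PDE2A3, diluted to give 20% conversion of 50 nM FAM-cAMP, with 1 µM cGMP as activator. Buffer was 10 mM Tris pH 7.2, 10 mM MgCl2, 1 mM DTT.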

[1] = Lab A, read-out: Rhesus PDE2 Ki (nM) Lab A

| Structure (SMILES) | Ki [1] [nM] | Ki (Lab B, read-out: Rhesus PDE2 Ki (nM) Lab B) [nM] |
| --- | --- | --- |
| Cc1nc2c(c(C(C)O)nn2C(C)c2ccc(C(F)(F)F)cc2)c(=O)[nH]1 (stereo not drawn) [Example 328, 3-(1-Hydroxyethyl)-6-methyl-1-{1-[4-(trifluoromethyl)phenyl]ethyl}-1,5-dihydro-4H-pyrazolo[3,4-d]pyrimidin-4-one] | 22 | 33 |
| CCC(CCCc1ccccc1)n1nc(C)c2c(=O)[nH]c(C)nc21 (stereo not drawn) [Example 338, 1-(1-ethyl-4-phenylbutyl)-3,6-dimethyl-1,5-dihydro-4H-pyrazolo[3,4-d]pyrimidin-4-one] | 113 |  |
